Test results as given in patent publication US10278942B2 (PELOTON THERAPEUTICS, INC., priority 2015, dated 2019).

Key:
[1] = molecular target: T1, HIF-2α HIS TAG-PASB Domain (Homo sapiens, UniProt Q99814); assay: HIF-2α Scintillation Proximity Assay (SPA); format: binding; settings: read-out: Scintillation Proximity Assay IC50
T1 construct: 100 nM HIF-2α HIS TAG-PASB Domain
In short: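 IC50 values rest on percent inhibition, where the sample signal is scaled between high and low controls. Wells contain about 100 μL: compound dispensed as 2 μL of DMSO solution, 88 μL protein-probe mix and 10 μL of beads.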

786-O-Hif-Luc cells = assay: Luciferase Assay (HIF responsive elements reporter); settings: read-out: Mean Luciferase EC50 (nM), 786-O-Hif-Luc cells
Procedure: A pool of infected cells were then selected against 2 μg/mL of puromycin (P8833, Sigma) for 10 days followed by limited dilution to select single clones. […] Each concentration was tested in triplicate. After about 24 hours, luciferase activity was determined using ONE-Glo Luciferase Assay Reagent (E6110, Promega) following the manufacturer's recommended procedure. EC50 were calculated using Dotmatics software.

T1 sequence (Q99814 240-350 limits assumed): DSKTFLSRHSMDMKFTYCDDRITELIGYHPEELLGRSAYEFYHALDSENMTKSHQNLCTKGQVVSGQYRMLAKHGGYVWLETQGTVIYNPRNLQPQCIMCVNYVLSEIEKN

| SMILES | IC50 [1] | EC50 (786-O-Hif-Luc cells) |
| --- | --- | --- |
| CS(=O)(=O)c1ccc(Oc2cc(F)cc(Cl)c2)c2c1[C@H](O)C(F)(F)C2 [Compound 160] | < 50 nM | < 50 nM |
| CS(=O)(=O)c1ccc(OCC2CC2)c2c1[C@H](O)C(F)(F)C2 [Compound 779] | > 1000 nM | > 1000 nM |
| O=S(=O)(c1ccc(Oc2ccc(F)c(Cl)c2)c2c1[C@H](O)CC2)C(F)F [Compound 157] | 250 to 1000 nM | > 1000 nM |
| CS(=O)(=O)c1ccc(OC(CF)CF)c2c1[C@H](O)C(F)(F)[C@@H]2F [Compound 762] | 250 to 1000 nM | 250 to 1000 nM |
| O[C@H]1c2c(C(F)(F)F)ccc(OCC(F)F)c2[C@@H](F)C1(F)F [Compound 699] | < 50 nM | 50 to 249 nM |
| CS(=O)(=O)c1ccc(O[C@H]2C[C@](F)(C#N)C2)c2c1[C@H](O)C(F)(F)[C@@H]2F [Compound 741] | < 50 nM | > 1000 nM |
| O=S1(=O)c2ccc(Oc3cncc(Cl)c3)c(Cl)c2[C@@H](O)C1(F)F [Compound 432] | 250 to 1000 nM | 250 to 1000 nM |
| CS(=N)(=O)c1ccc(Oc2cc(F)cc(F)c2)c2c1C(O)C(F)(F)C2 (centres unmarked) [Compound 192] | 50 to 249 nM | 250 to 1000 nM |
| O=S(=O)(c1ccc(OCCO)c2c1C(O)C(F)(F)C2)C(F)(F)F (centres unmarked) [Compound 614] | 50 to 249 nM | > 1000 nM |
| CC(Oc1ccc(S(=O)(=O)C(F)(F)F)c2c1CC(F)(F)C2O)C1CC1 (centres unmarked) [Compound 746] | < 50 nM | < 50 nM |
| CS(=O)(=O)c1ccc(Oc2cc(F)cc(C#N)c2)c2c1[C@H](O)C(F)(F)[C@H]2F [Compound 293] | 250 to 1000 nM | 250 to 1000 nM |
| C#CCOc1ccc(S(=O)(=O)C(F)(F)F)c2c1CC(F)(F)[C@H]2O [Compound 711] | 250 to 1000 nM | 250 to 1000 nM |
| O=S(=O)(c1ccc(Oc2cc(F)cc(F)c2)c2c1CCC2)C(F)F [Compound 20] | > 1000 nM | > 1000 nM |
| CC(C)(COc1ccc(S(=O)(=O)C(F)(F)F)c2c1CC(F)(F)[C@H]2O)S(C)(=O)=O [Compound 723] | > 1000 nM | > 1000 nM |
| N#CC1(CCOc2ccc(S(=O)(=O)C(F)(F)F)c3c2CC(F)(F)[C@H]3O)COC1 [Compound 749] | 250 to 1000 nM | > 1000 nM |
| CS(=O)(=O)NCCOc1ccc(S(=O)(=O)C(F)(F)F)c2c1CC(F)(F)C2O (centres unmarked) [Compound 637] | 250 to 1000 nM | > 1000 nM |
| O=S(=O)(c1ccc(OC2CCCC2)c2c1C(O)CC2)C(F)(F)F (centres unmarked) [Compound 603] | 250 to 1000 nM | > 1000 nM |
| O=S(=O)(c1ccc(OC2CCOCC2)c2c1C(O)C(F)(F)C2)C(F)F (centres unmarked) [Compound 782] | 50 to 249 nM | 50 to 249 nM |
| N#Cc1cc(F)cc(Oc2ccc3c(c2C#N)[C@@H](O)CS3(=O)=O)c1 [Compound 416] | > 1000 nM | 250 to 1000 nM |
| N#Cc1cncc(Oc2ccc(S(=O)(=O)C(F)F)c3c2CC(F)(F)[C@H]3O)c1 [Compound 27] | 250 to 1000 nM | 50 to 249 nM |
| N#CN=S1(=O)CC(O)c2c1ccc(Oc1cc(F)cc(F)c1)c2C(F)F (centres unmarked) [Compound 394] | > 1000 nM | > 1000 nM |
| C[C@]1(C#N)C[C@@H](Oc2ccc(S(=O)(=O)C(F)(F)F)c3c2C[C@@H](F)[C@H]3O)C1 [Compound 794] | < 50 nM | < 50 nM |

| SMILES | IC50 [1] | EC50 (786-O-Hif-Luc cells) |
| --- | --- | --- |
| O=S(=O)(CF)c1ccc(Oc2cc(F)cc(F)c2)c2c1C(O)CC2 (centres unmarked) [Compound 59] | < 50 nM | 50 to 249 nM |
| CS(=O)(=O)c1ccc(OC[C@@H]2C[C@@H]2C#N)c2c1[C@H](O)C(F)(F)[C@@H]2F [Compound 764] | > 1000 nM | > 1000 nM |
| O=S(=O)(c1ccc(OC2CCC2)c2c1C(O)C(F)(F)C2)C(F)(F)F (centres unmarked) [Compound 602] | < 50 nM | < 50 nM |
| COC(C)COc1ccc(S(=O)(=O)C(F)(F)F)c2c1CC(F)(F)C2O (centres unmarked) [Compound 626] | < 50 nM | 50 to 249 nM |
| CCCOc1ccc(C(F)(F)F)c2c1CC(F)(F)/C2=N\O [Compound 703] | 250 to 1000 nM | > 1000 nM |
| N#Cc1cc(F)cc(Oc2ccc(S(=O)(=O)C(F)F)c(C#N)c2Cl)c1 [Compound 39] | 50 to 249 nM | 250 to 1000 nM |
| CS(=O)(=O)c1ccc(Oc2cc(F)cc(C#N)c2)c2c1[C@H](O)C[C@@H]2F [Compound 295] | 50 to 249 nM | 250 to 1000 nM |
| N#CN=S1(=O)c2ccc(Oc3cc(F)cc(F)c3)c(Cl)c2[C@@H](O)C1(F)F (some centres unmarked) [Compound 412] | 50 to 249 nM | > 1000 nM |
| Cc1c(Oc2cc(F)cc(C#N)c2)ccc(S(=O)(=O)C(F)(F)F)c1C=O [Compound 145] | 50 to 249 nM | 250 to 1000 nM |
| N#Cc1cncc(Oc2ccc(S(=N)(=O)C(F)(F)F)c3c2CC(F)(F)[C@H]3O)c1 (some centres unmarked) [Compound 314] | < 50 nM | 50 to 249 nM |
| CS(=O)(=O)c1ccc(Oc2cccc(C#N)c2)c2c1[C@H](O)C(F)(F)C2 [Compound 162] | 50 to 249 nM | 50 to 249 nM |
| N#Cc1cncc(Oc2ccc(S(N)(=O)=O)c3c2CC(F)(F)[C@H]3O)c1 [Compound 253] | > 1000 nM | > 1000 nM |
| N#Cc1cc(F)cc(Oc2ccc(S(=O)(=O)C(F)(F)F)cc2Br)c1 [Compound 118] | 50 to 249 nM | > 1000 nM |
| O=S(=O)(c1ccc(OCC2CC2)c2c1C(O)C(F)(F)C2)C(F)(F)F (centres unmarked) [Compound 598] | 50 to 249 nM | 50 to 249 nM |
| O=S(=O)(c1ccc(OCc2ccccn2)c2c1C(O)C(F)(F)C2)C(F)(F)F (centres unmarked) [Compound 665] | > 1000 nM | > 1000 nM |
| O=S(=O)(c1ccc(Oc2ccc(F)c(Br)c2)c2c1[C@H](O)C(F)(F)C2)C(F)F [Compound 194] | < 50 nM | 250 to 1000 nM |
| CCCOc1ccc(I)c2c1C[C@@H](F)[C@H]2O [Compound 683] | > 1000 nM | > 1000 nM |
| CC(C)(O)COc1ccc(S(=O)(=O)C(F)(F)F)c2c1CC(F)(F)[C@H]2O [Compound 750] | 250 to 1000 nM | 250 to 1000 nM |
| CS(=O)(=O)c1ccc(OCC2CC(F)(F)C2)c2c1[C@H](O)C(F)(F)[C@@H]2F [Compound 759] | 50 to 249 nM | 250 to 1000 nM |
| Cc1c(S(C)(=O)=O)ccc(Oc2cc(F)cc(F)c2)c1C#N [Compound 52] | < 50 nM | 250 to 1000 nM |
| O/N=C1/c2c(C(F)(F)F)ccc(OCC(F)F)c2[C@@H](F)C1(F)F [Compound 669] | 50 to 249 nM | 250 to 1000 nM |
| N#Cc1cc(F)cc(Oc2ccc3c(c2C#N)C(N)C(F)(F)S3(=O)=O)c1 (centres unmarked) [Compound 464] | > 1000 nM | > 1000 nM |

| SMILES | IC50 [1] | EC50 (786-O-Hif-Luc cells) |
| --- | --- | --- |
| OC1c2c(C(F)F)ccc(OCC(F)F)c2CC1(F)F (centres unmarked) [Compound 586] | 50 to 249 nM | > 1000 nM |
| CS(=O)(=O)c1ccc(OC2CCC(F)(F)CC2)c2c1[C@H](O)C(F)(F)[C@@H]2F [Compound 771] | 50 to 249 nM | 250 to 1000 nM |
| CC1(C)CC[C@@H](O)[C@H](c2ccc(S(=O)(=O)C(F)(F)F)c3c2CC(F)(F)[C@H]3O)C1 [Compound 547] | 50 to 249 nM | 50 to 249 nM |
| CCC(COC)Oc1ccc(S(=O)(=O)C(F)(F)F)c2c1CC(F)(F)C2O (centres unmarked) [Compound 747] | 50 to 249 nM | 250 to 1000 nM |
| CS(=O)(=O)c1ccc(Oc2cncc(Cl)c2)c2c1[C@H](O)C(F)(F)C2 [Compound 115] | 250 to 1000 nM | 250 to 1000 nM |
| N#CC1(COc2ccc(S(=O)(=O)C(F)(F)F)c3c2C[C@@H](F)[C@H]3O)CC1 [Compound 661] | < 50 nM | < 50 nM |
| O=S(=O)(c1ccc(Nc2cc(F)cc(F)c2)c2c1[C@H](O)CC2)C(F)(F)F [Compound 531] | 250 to 1000 nM | 250 to 1000 nM |
| O[C@H]1c2c(C(F)(F)F)ccc(OCCCF)c2[C@@H](F)C1(F)F [Compound 582] | < 50 nM | < 50 nM |
| N#Cc1c(S(=O)(=O)C(F)F)ccc(Oc2cc(F)cc(Cl)c2)c1Cl [Compound 38] | 50 to 249 nM | 250 to 1000 nM |
| O=S(=O)(c1ccc(OC2CCC(O)CC2)c2c1C(O)C(F)(F)C2)C(F)(F)F (centres unmarked) [Compound 618] | > 1000 nM | > 1000 nM |
| O=S1(=O)c2ccc(OCC3CC3)c(C(F)F)c2[C@@H](O)C1(F)F [Compound 439] | > 1000 nM | > 1000 nM |
| CS(=O)(=O)c1ccc(Oc2cncc(Br)c2)c2c1[C@H](O)C(F)(F)C2 [Compound 324] | 50 to 249 nM | 250 to 1000 nM |
| CC1(C)C[C@@H](O)C[C@@H](c2ccc(S(=O)(=O)C(F)(F)F)c3c2CC(F)(F)[C@H]3O)C1 [Compound 550] | < 50 nM | 250 to 1000 nM |
| O=S(=O)(c1ccc(Oc2ccc(F)c(Cl)c2)c2c1[C@H](O)C(F)(F)C2)C(F)F [Compound 26] | < 50 nM | 50 to 249 nM |
| CC(C)CCOc1ccc(S(=O)(=O)C(F)(F)F)c2c1CC(F)(F)[C@H]2O [Compound 717] | 50 to 249 nM | 50 to 249 nM |
| N#Cc1cncc(Nc2ccc(S(=O)(=O)C(F)(F)F)c3c2CC(F)(F)[C@H]3O)c1 [Compound 488, (S)-5-((2,2-difluoro-1-hydroxy-7-((trifluoromethyl)sulfonyl)-2,3-dihydro-1H-inden-4-yl)amino)nicotinonitrile] | 50 to 249 nM | 50 to 249 nM |
| O=S1(=O)c2ccc(Oc3cccc4cn[nH]c34)c(C(F)F)c2C(O)C1(F)F (centres unmarked) [Compound 441] | > 1000 nM | > 1000 nM |
| COc1c(Oc2cc(F)cc(C#N)c2)ccc2c1C(O)C(F)(F)S2(=O)=O (centres unmarked) [Compound 433] | 250 to 1000 nM | > 1000 nM |
| CS(=O)(=O)c1ccc(Sc2cc(F)cc(Cl)c2)c2c1[C@H](O)C(F)(F)[C@@H]2F [Compound 491, (1S,3R)-4-((3-chloro-5-fluorophenyl)thio)-2,2,3-trifluoro-7-(methylsulfonyl)-2,3-dihydro-1H-inden-1-ol] | < 50 nM | > 1000 nM |
| O/N=C1/c2c(C(F)(F)F)ccc(OCCCF)c2[C@@H](F)C1(F)F [Compound 581] | < 50 nM | > 1000 nM |
